In patent US10758527B2, “Opioid agonist antagonist combinations” (Alkermes Pharma Ireland Limited, priority 2011, dated 2020):

Legend:
[1] = system: dopamine efflux in the Nucleus Accumbens shell (NAc-sh); experiment: In vivo microdialysis of dopamine efflux in free-moving rats; conditions: antagonist given with Buprenorphine (0.1 mg/kg, SC)
Method: Experiments were conducted in rats to assess the ability of opioid antagonists to modulate buprenorphine-induced dopamine efflux in the Nucleus Accumbens shell (NAc-sh) region of the mesolimbic region of the brain. Male rats weighing 300-400 grams were used for all studies. To measure the efflux of dopamine in the NAc-sh an in vivo microdialysis method was utilized in free-moving rats. This method allows the sampling of extracellular cerebrospinal fluid (C SF) from specific brain regions of interest and measurement of neurotransmitter concentrations following the analysis of sampled dialysate with HPLC-EC.
Each rat underwent surgical implantation of microdialysis guide cannula (CMA 12, CMA Microdialysis) to guide the insertion of the microdialysis probe later on. Rats were anesthetized with a mixture of ketamine/xylazine (80/6 mg/kg IP) and placed in a stereotaxic apparatus. […] Guide cannula were capped with dummy probes until microdialysis probe insertion. On the day prior to experimentation (3-4 days post-surgery), animals were weighed to determine appropriate dose for test articles. A microdialysis probe (CMA 12, 2 mm membrane, CMA microdialysis) was then inserted through the guide cannula. […] Each sample was analyzed via HPLC-EC to determine neurotransmitter concentration of dopamine based upon a six-point standard curve.

[2] = system: Wistar-Kyoto (WKY) rats; experiment: Forced swim test (FST); conditions: WKY rats treated with Buprenorphine (0.1 mg/kg)
Method: In the “forced swim test” (FST) rats are placed in a tank of water, from which they cannot escape, on two successive days; 15 minutes on the first day and 5 minutes on the second day. While in the water they will swim, attempt to climb the container wall or become “immobile” floating in the water. The total time rats are immobility increases between the first and second day. […] At 24 h after the first swim, rats were retested for 5 minutes. Videos were scored manually for immobility time (in seconds) using a manual stop watch in 60 second intervals by a rater blinded to the treatment groups. A rat was judged to be immobile if it was making only movements necessary to keep its head above water.

Compound	effect on buprenorphine-induced NAc-sh dopamine efflux [1]	immobility in forced swim test with increased concentrations of Compound-1 [2]
NC(=O)c1ccc2c(c1O)[C@]13CCN(CC4CC4)[C@H](C2)[C@]1(O)CCC(=O)C3 [Compound-1]	Reduction in the efflux of dopamine	Increase in immobility
C=C1CC[C@@]2(O)[C@H]3Cc4ccc(C(N)=O)c(O)c4[C@@]2(CCN3CC2CC2)C1 [Compound-10]	Reduction in the efflux of dopamine	
C=C1CC[C@@]2(O)[C@H]3Cc4ccc(O)c5c4[C@@]2(CCN3CC2CC2)[C@H]1O5 [Nalmefene, nalmefene, reference compound]	Reduction in the efflux of dopamine	
O=C1CC[C@@]2(O)[C@H]3Cc4ccc(O)c5c4[C@@]2(CCN3CC2CC2)[C@H]1O5 [Naltrexone, naltrexone, reference compound]	Reduction in the efflux of dopamine	
